The values below come from patent US10059733B2 (NUCORION PHARMACEUTICALS, INC., priority 2014, dated 2018).

Read-outs that look alike come from different tables or passages of the source.

Broadly, the IC50 is the midpoint of a concentration-inhibition curve.

Data set [1] relates to HCV luciferase replicon. Description: IC50 assay: inhibition of the HCV luciferase replicon in Huh7 cells. Type of data set: cell-based. The following applies: for IC50: Hepatitis C virus; for Therapeutic Index (TC50/IC50): TC50 in Huh7 / IC50 HCV replicon, 48 h. How it is done:
After 48 h of treatment at 37° C., the media in each well was removed, the cells were gently washed once with phosphate buffered saline (PBS) and subsequently lysed by the addition of Glo Lysis Buffer (Promega). After a 15 min incubation at room temperature to allow for complete cell lysis, Bright-Glo luciferase reagent (Promega) was added to each well and the relative luciferase activity in each well was determined by using a Glowmax 96 microplate luminometer (Promega).
IC50 values determined using the above methods for inhibition of the HCV luciferase replicon in Huh7 cells are set forth in Table 1.
All compounds were purified by HPLC.
(In antiviral work, replicon cells carry a viral genome segment that copies itself.)

Data set [2] can be described thus: TC50 assay in Huh7 cells, 48 h (CellTiter 96). The following applies: human. Here is the method:
(§1) Huh7 cells were maintained at 37° C. in a humidified atmosphere at 5% CO2 in DMEM containing 10% FBS. […] The cells were then treated with each compound at concentrations ranging from 500 μM to 0 μM in triplicate in DMEM media containing 2% FBS and 0.5% DMSO and without phenol red. After 48 h of treatment at 37° C., the relative number of living cells in each well was determined by using the CellTiter 96 system (Promega) according to the manufacturer's instructions. The 3-(4,5-dimethylthiazol-2-yl)-5-(3-carboxymethoxyphenyl)-2-(4-sulfophenyl)-2H-tetrazolium (MTS) and phenazine methosulfate (PMS) reagents were added to each well of the 96-well plate and the plate was incubated at 37° C. for approximately 2 h. The absorbance at 490 nm and 650 nm in each well was then determined by using a Flexstation 3 microplate reader ([…]). The absorbance determined at 650 nm was then subtracted from the absorbance determined at 490 nm to correct for light scattering. The corrected absorbance values representing the relative number of live cells in each condition were then plotted as a function of compound concentration, and the data were then fit to the following sigmoidal Emax equation by using Kaleidagraph: y=(Emax*x^Slope)/(TC50^Slope+x^Slope) where y is the relative corrected absorbance value, Emax is the maximum relative inhibition, x is the compound concentration, TC50 is the concentration of the compound at which the total cell population is reduced by 50%, and Slope is the slope of the curve.
The data in Table 1 were determined for cells exposed to drug for 48 h. The IC50 is the concentration of each compound necessary to inhibit the replication of the HCV luciferase replicon to 50%. “TC50,” refers to toxic concentration necessary to reduce the cell population by 50%. All compounds were purified by HPLC.

The test system of data set [3] is HCV luciferase replicon. Description: Isobologram analysis of synergism with antiviral compound in HCV luciferase replicon. Type of data set: cell-based. How it is done: Isobologram analysis was conducted to assess the potential synergistic interaction of representative disclosed compounds with representative antiviral compounds. The isobolgram analysis was conducted as previously described by Chou and Talalay (see Chou T. C. and Talalay P. “Analysis of combined drug effects: a new look at a very old problem.” Trends Pharmacol Sci 1983; 4:450-4; and Chou T. C. and Talalay P. “Quantitative analysis of dose-effect relationships: the combined effects of multiple drugs or enzyme inhibitors.” Adv Enzyme Regul 1984; 22:27-55; both of which are incorporated herein by reference in their entirety). The definitions of synergism are those described by Chou (see Chou, T. C. (2006) Theoretical basis, experimental design, and computerized simulation of synergism and antagonism in drug combination studies. Pharmacol Rev. 58(3):621-81, which is incorporated herein by reference in its entirety).
In the synergism studies described herein, the antiviral compound shown in Table 6 was assessed in combination with a representative disclosed compound, Compound 1.

For a further data set, the system named is Huh7. Description: TC50 assay with human cancer cell lines, 96 h: Huh7. Type of data set: cell-based.
Another data set concerns HEPG2. Description: TC50 assay with human cancer cell lines, 96 h: HEPG2. As to conditions: HepG2, 96 h, read-out: TC50 HEPG2 (μM). The class given is cell-based.
Another data set concerns HEK293. Description: TC50 assay with human cancer cell lines, 96 h: HEK293. Type of data set: cell-based.
A further data set has as its system MCF-7. Description: TC50 assay with human cancer cell lines, 96 h: MCF-7. Type of data set: cell-based.
The subject of the next data set is BxPC3. Description: TC50 assay with human cancer cell lines, 96 h: BxPC3. The class given is cell-based.
A further data set has as its system PK9 cells. Description: TC50 assay in PK9 cells, 48 h. As to conditions: Homo sapiens, PK9, 48 h, read-out: TC50 (μM) in PK9 cells at 48 hr. Here is the method:
as §1
(§2) PK9 and RPK9 cells were maintained at 37° C. in a humidified atmosphere at 5% CO2 in Roswell Park Memorial Institute (RPMI) media containing 10% FBS. […] The cells were then treated with each compound at concentrations ranging from […] to 0 μM in triplicate in RPMI media containing 2% FBS and 0.5% DMSO and without phenol red. […] The RPK9 cells were derived from the parental PK9 cell line, and are deficient for dCK activity due to the partial deletion of the dCK gene.

The subject of another data set is RPK9 cells. Description: TC50 assay in gemcitabine resistant (dCK deficient) RPK9 cells, 48 h. The following applies: read-out: TC50 (μM) in RPK9 cells at 48 hr. Here is the method: as §1, §2
[4] abbreviates: Huh-7, Huh7 cells containing HCV luciferase replicon, 48 h exposure, read-out: IC50.

Description for BxPC3: (§3) Huh7 cells were maintained at 37° C. in a humidified atmosphere at 5% CO2 in DMEM containing 10% FBS. […] The cells were then treated with each compound at concentrations ranging from 500 μM to 0 μM in triplicate in DMEM media containing 2% FBS and 0.5% DMSO and without phenol red. After 48 h of treatment at 37° C., the relative number of living cells in each well was determined by using the CellTiter 96 system (Promega) according to the manufacturer's instructions. The 3-(4,5-dimethylthiazol-2-yl)-5-(3-carboxymethoxyphenyl)-2-(4-sulfophenyl)-2H-tetrazolium (MTS) and phenazine methosulfate (PMS) reagents were added to each well of the 96-well plate and the plate was incubated at 37° C. for approximately 2 h. The absorbance at 490 nm and 650 nm in each well was then determined by using a Flexstation 3 microplate reader (Molecular Dynamics). The absorbance determined at 650 nm was then subtracted from the absorbance determined at 490 nm to correct for light scattering. The corrected absorbance values representing the relative number of live cells in each condition were then plotted as a function of compound concentration, and the data were then fit to the following sigmoidal Emax equation by using Kaleidagraph: y=(Emax*x^Slope)/(TC50^Slope+x^Slope) where y is the relative corrected absorbance value, Emax is the maximum relative inhibition, x is the compound concentration, TC50 is the concentration of the compound at which the total cell population is reduced by 50%, and Slope is the slope of the curve.
(§4) Huh7, HEPG2, HEK293, MCF-7 and BxPC3 cell lines were maintained at 37° C. in a humidified atmosphere at 5% CO2 in DMEM containing 10% FBS. […] The cells were then treated with each compound at concentrations ranging from 500 μM to 0 μM in triplicate in DMEM media containing 2% FBS and 0.5% DMSO and without phenol red.
Description for HEK293: as §3, §4
Description for HEPG2: as §3, §4
Description for MCF-7: as §3, §4

As for `O=C(Nc1ccn(C2O[C@H](CO)[C@@H](O)C2(F)F)c(=O)n1)c1ccc2ccccc2c1` (stereo partly drawn) [Compound 7, N-(1-((4R,5R)-3,3-difluoro-4-hydroxy-5-(hydroxymethyl)tetrahydrofuran-2-yl)-2-oxo-1,2-dihydropyrimidin-4-yl)-2-naphthamide], the IC50 in the data set with HCV luciferase replicon [1] (setting [4]) is 126 nM. Further, the “Therapeutic Index (TC50/IC50)” value in the data set on HCV luciferase replicon [1] was 992. In data set [2] (Huh7 cells), this molecule came in with a CC50 at 48 h of 125 µM.
In the same order, the values of `O=C(Nc1ccn(C2O[C@H](CO)[C@@H](O)C2(F)F)c(=O)n1)C1Cc2ccccc2C1` (stereo partly drawn) [Compound 11, N-(1-((4R,5R)-3,3-difluoro-4-hydroxy-5-(hydroxymethyl)tetrahydrofuran-2-yl)-2-oxo-1,2-dihydropyrimidin-4-yl)-2,3-dihydro-1H-indene-2-carboxamide] are 10 nM, >50,000 and greater than 500 µM.
`O=C(Nc1ccn(C2O[C@H](CO)[C@@H](O)C2(F)F)c(=O)n1)c1ccc2c(c1)CCCC2` (stereo partly drawn) [Compound 5, N-(1-((4R,5R)-3,3-difluoro-4-hydroxy-5-(hydroxymethyl)tetrahydrofuran-2-yl)-2-oxo-1,2-dihydropyrimidin-4-yl)-5,6,7,8-tetrahydronaphthalene-2-carboxamide]: the IC50 in the data set on HCV luciferase replicon [1] (setting [4]) was 86 nM. Moreover, in the data set on HCV luciferase replicon [1], the “Therapeutic Index (TC50/IC50)” value was 1,535. The molecule further registered a CC50 at 48 h in data set [2] (Huh7 cells) of 132 µM.
As for `O=C(Nc1ccn(C2O[C@H](CO)[C@@H](O)C2(F)F)c(=O)n1)c1ccc2c(c1)CCC2` (stereo partly drawn) [Compound 12, N-(1-((4R,5R)-3,3-difluoro-4-hydroxy-5-(hydroxymethyl)tetrahydrofuran-2-yl)-2-oxo-1,2-dihydropyrimidin-4-yl)-2,3-dihydro-1H-indene-5-carboxamide], the IC50 in the data set with HCV luciferase replicon [1] (setting [4]) was found to be 58.6 nM. For the same molecule, the “Therapeutic Index (TC50/IC50)” value in the data set with HCV luciferase replicon [1] is reported as 6,451. In data set [2] (Huh7 cells), the CC50 at 48 h is 378 µM.
Turning to `O=C(Nc1ccn(C2O[C@H](CO)[C@@H](O)C2(F)F)c(=O)n1)c1ccc2cc(Br)ccc2c1` (stereo partly drawn) [Compound 6, 6-bromo-N-(1-((4R,5R)-3,3-difluoro-4-hydroxy-5-(hydroxymethyl)tetrahydrofuran-2-yl)-2-oxo-1,2-dihydropyrimidin-4-yl)-2-naphthamide], the IC50 in the data set on HCV luciferase replicon [1] (setting [4]) worked out at 185 nM. Moreover, in the data set on HCV luciferase replicon [1], the “Therapeutic Index (TC50/IC50)” value was found to be 400. For the same molecule, the CC50 at 48 h in [2] (Huh7 cells) amounted to 74 µM.
In the case of `COC(=O)N[C@H](C(=O)N1CCC[C@H]1c1ncc(-c2ccc(-c3ccc(-c4cnc([C@@H]5CCCN5C(=O)[C@@H](NC(=O)OC)C(C)C)[nH]4)cc3)cc2)[nH]1)C(C)C` [BMS-790052, carbamic acid, N,N′-[[1,1′-biphenyl]-4,4′-diylbis[1H-imidazole-5,2-diyl-(2S)-2,1-pyrrolidinediyl[(1S)-1-(1-methylethyl)-2-oxo-2,1-ethanediyl]]]bis-, C,C′-dimethyl ester, reference compound], the “Combination Index” value in the data set on HCV luciferase replicon [3] (Compound 1 0.0 nM, BMS-790052 0.020 nM) was 1.000. Moreover, in the data set with HCV luciferase replicon [3] (compound alone, other compound 0 nM), the “concentration of the single agent on the IC50 isobologram (Combination Index 1.000)” value was 0.020 nM.
Turning to `COc1ccc2cc(C(=O)Nc3ccn(C4O[C@H](CO)[C@@H](O)C4(F)F)c(=O)n3)ccc2c1` (stereo partly drawn) [Compound 10, N-(1-((4R,5R)-3,3-difluoro-4-hydroxy-5-(hydroxymethyl)tetrahydrofuran-2-yl)-2-oxo-1,2-dihydropyrimidin-4-yl)-6-methoxy-2-naphthamide], the IC50 in the data set on HCV luciferase replicon [1] (setting [4]) was 93.5 nM. The “Therapeutic Index (TC50/IC50)” value in the data set with HCV luciferase replicon [1] was 1,796. Besides, the CC50 at 48 h in data set [2] (Huh7 cells) is 168 µM.
In the case of `CC(C)OC(=O)[C@H](C)NP(=O)(OC[C@H]1OC(n2ccc(NC(=O)C3Cc4ccccc4C3)nc2=O)C(F)(F)[C@@H]1O)Oc1ccccc1` (stereo in doubt) [Compound 13, (2S)-isopropyl 2-(((R)-(((2R,3R)-5-(4-(2,3-dihydro-1H-indene-2-carboxamido)-2-oxopyrimidin-1(2H)-yl)-4,4-difluoro-3-hydroxytetrahydrofuran-2-yl)methoxy)(phenoxy)phosphoryl)amino)-propanoate], in the data set on HCV luciferase replicon [1] (Huh-7, 48 h), the midpoint of inhibition, the IC50, lay at 345 nM. The “Therapeutic Index (TC50/IC50)” value in the data set on HCV luciferase replicon [1] is 684. The CC50 at 48 h in [2] is 236 µM.
Regarding `CC(C)OC(=O)[C@H](C)N[P@](=O)(OC[C@H]1O[C@@H](n2ccc(N)nc2=O)C(F)(F)C1O)Oc1ccccc1` (stereo partly shown) [Phosphorylated analog of Gemcitabine], the CC50 worked out at 4.15 µM in the data set with Huh7 (Huh-7, 96 h, read-out: TC50 Huh7 (μM)); 0.89 µM in the data set on HEPG2; 0.38 µM in the data set on HEK293 (HEK293, 96 h, read-out: TC50 HEK293 (μM)); 0.115 µM with MCF-7 (MCF7, 96 h, read-out: TC50 MCF-7 (μM)); 0.76 µM in the data set with BxPC3 (BXPC-3, 96 h, read-out: TC50 BxPC3 (μM)); 11.2 µM in the data set with PK9 cells. Also, in the data set with RPK9 cells, the CC50 was found to be 21 µM.
As to `O=C(Nc1ccn(C2O[C@H](CO)[C@@H](O)C2(F)F)c(=O)n1)c1ccc2c(c1)C(=O)c1ccccc1C2=O` (stereo partly drawn) [Compound 8, N-(1-((4R,5R)-3,3-difluoro-4-hydroxy-5-(hydroxymethyl)tetrahydrofuran-2-yl)-2-oxo-1,2-dihydropyrimidin-4-yl)-9,10-dioxo-9,10-dihydroanthracene-2-carboxamide], in the data set on HCV luciferase replicon [1] (setting [4]), the IC50 stood at 12.8 nM. For the same molecule, the “Therapeutic Index (TC50/IC50)” value with HCV luciferase replicon [1] is recorded as 19,450. In addition, in data set [2] (Huh7 cells), the CC50 at 48 h came out at 249 µM.
As for `O=C(Nc1ccn(C2O[C@H](CO)[C@@H](O)C2(F)F)c(=O)n1)c1ccc2c(c1)OCO2` (stereo partly shown) [Non-phosphorylated analog of Compound 4], the IC50 in the data set with HCV luciferase replicon [1] (setting [4]) worked out at 59.8 ± 8.4 nM. Besides, the “Therapeutic Index (TC50/IC50)” value with HCV luciferase replicon [1] is recorded as 7910. For the same molecule, the CC50 at 48 h in data set [2] (Huh7 cells) was found to be 473 ± 74 µM. Besides, the CC50 is 7.04 µM with Huh7 (Huh-7, 96 h of treatment, read-out: TC50 Huh7); 4.09 µM with HEK293 (HEK293, 96 h of treatment, read-out: TC50 HEK293); 1.19 µM in the data set on MCF-7 (MCF7, 96 h of treatment, read-out: TC50 MCF-7); 0.72 µM with BxPC3 (BXPC-3, 96 h of treatment, read-out: TC50 BxPC3); greater than 500 µM in the data set with RPK9 cells.
For `CCCC(CCC)C(=O)Nc1ccn([C@@H]2O[C@@H]3CO[P@@](=O)(OC(C)C)O[C@H]3C2(F)F)c(=O)n1` [Compound 2, N-(1-((2S,4aR,6R,7aR)-7,7-difluoro-2-isopropoxy-2-oxidotetrahydro-4H-furo[3,2-d][1,3,2]-dioxaphosphinin-6-yl)-2-oxo-1,2-dihydropyrimidin-4-yl)-2-propylpentanamide], in the data set with HCV luciferase replicon [1] (setting [4]), the IC50 was 7480 nM. In addition, the “Therapeutic Index (TC50/IC50)” value in the data set with HCV luciferase replicon [1] is on record as 23.4. This molecule showed a CC50 at 48 h in data set [2] (Huh7 cells) of 175 ± 23 µM. The CC50 in the data set on PK9 cells is 716 ± 104 µM; in the data set on RPK9 cells it was 537 ± 55 µM.
On to `O=C(Nc1ccn(C2O[C@H](CO)[C@@H](O)C2(F)F)c(=O)n1)c1cccc2c1CCCC2` (stereo partly drawn) [Compound 9, N-(1-((4R,5R)-3,3-difluoro-4-hydroxy-5-(hydroxymethyl)tetrahydrofuran-2-yl)-2-oxo-1,2-dihydropyrimidin-4-yl)-5,6,7,8-tetrahydronaphthalene-1-carboxamide], for which the IC50 in the data set with HCV luciferase replicon [1] (setting [4]) is 161 nM. For the same molecule, in the data set on HCV luciferase replicon [1], the “Therapeutic Index (TC50/IC50)” value is recorded as 571. In [2] (Huh7 cells), this molecule displayed a CC50 at 48 h of 92 µM.
